# According to PubChem BioAssay (NCI):
#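 Grown in 96-well plates, cells were treated for 48 hours with each compound at five concentrations. Insufficient inhibition: endpoint recorded as highest concentration tested. TGI: concentration producing complete growth inhibition.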
# Legend:
# Assay in all cases: NCI tumour cell line growth inhibition, 48 h
# [1] = test system: MDA-N
# [2] = test system: HOP-92 NSCLC
# [3] = test system: HCC-2998 colon
# [4] = test system: OVCAR-5 ovarian
# [5] = test system: HCT-15 colon
# [6] = test system: SF-295 CNS
# [7] = test system: CCRF-CEM leukemia
# [8] = test system: SR leukemia
# [9] = test system: SK-OV-3 ovarian
# [10] = test system: KM12 colon
# [11] = test system: K-562 leukemia
# [12] = test system: COLO 205 colon
# [13] = test system: NCI-H23 lung
# [14] = test system: SNB-19 CNS
# [15] = test system: NCI-H226 lung
# [16] = test system: SK-MEL-28 melanoma
# [17] = test system: ACHN renal
# [18] = test system: EKVX NSCLC
# [19] = test system: T-47D breast
# [20] = test system: SF-539 CNS
# [21] = test system: MALME-3M melanoma
# [22] = test system: RPMI-8226 leukemia
# [23] = test system: PC-3 prostate
# [24] = test system: HOP-62 NSCLC
# [25] = test system: A549 NSCLC
# [26] = test system: NCI/ADR-RES ovarian
# [27] = test system: MOLT-4 leukemia
# [28] = test system: NCI-H460 lung
# [29] = test system: SF-268 CNS
# [30] = test system: U251 CNS
# [31] = test system: RXF 393 renal
# [32] = test system: DU-145 prostate
# [33] = test system: OVCAR-8 ovarian
# [34] = test system: 786-0 renal
# [35] = test system: NCI-H522 lung
# [36] = test system: UACC-257 melanoma
# [37] = test system: CAKI-1 renal
# [38] = test system: OVCAR-3 ovarian
# [39] = test system: M14 melanoma
# [40] = test system: HL-60(TB) leukemia
# [41] = test system: HT29 colon
# [42] = test system: SN12C renal
# [43] = test system: HS 578T breast
# [44] = test system: MDA-MB-435
# [45] = test system: IGROV1 ovarian
# [46] = test system: SW-620 colon
# [47] = test system: UO-31 renal
# [48] = test system: HCT-116 colon
# [49] = test system: SK-MEL-5 melanoma
# [50] = test system: OVCAR-4 ovarian
# [51] = test system: MCF7 breast
# [52] = test system: UACC-62 melanoma
# [53] = test system: SNB-75 CNS
# [54] = test system: LOX IMVI melanoma
# [55] = test system: MDA-MB-231 breast
# [56] = test system: SK-MEL-2 melanoma
# [57] = test system: TK-10 renal
# [58] = test system: A498 renal
smiles,measurement,setting,value
CCOC(=O)C(NC(=O)CC)(Nc1ccc(S(=O)(=O)Nc2ncccn2)cc1)C(F)(F)F (configuration not stated),TGI,[1],> 100 µM
same,TGI,[2],> 100 µM
same,TGI,[3],> 100 µM
same,TGI,[4],> 100 µM
same,TGI,[5],> 100 µM
same,TGI,[6],> 100 µM
same,TGI,[7],> 100 µM
same,TGI,[8],> 100 µM
same,TGI,[9],> 100 µM
same,TGI,[10],> 100 µM
same,TGI,[11],> 100 µM
same,TGI,[12],> 100 µM
same,TGI,[13],> 100 µM
same,TGI,[14],> 100 µM
same,TGI,[15],> 100 µM
same,TGI,[16],> 100 µM
same,TGI,[17],> 100 µM
same,TGI,[18],> 100 µM
same,TGI,[19],> 100 µM
same,TGI,[20],> 100 µM
same,TGI,[21],> 100 µM
same,TGI,[22],> 100 µM
same,TGI,[23],> 100 µM
same,TGI,[24],> 100 µM
same,TGI,[25],> 100 µM
same,TGI,[26],> 100 µM
same,TGI,[27],> 100 µM
same,TGI,[28],> 100 µM
same,TGI,[29],> 100 µM
same,TGI,[30],> 100 µM
same,TGI,[31],> 100 µM
same,TGI,[32],> 100 µM
same,TGI,[33],> 100 µM
same,TGI,[34],> 100 µM
same,TGI,[35],> 100 µM
same,TGI,[36],> 100 µM
same,TGI,[37],> 100 µM
same,TGI,[38],> 100 µM
same,TGI,[39],> 100 µM
same,TGI,[40],> 100 µM
same,TGI,[41],> 100 µM
same,TGI,[42],> 100 µM
same,TGI,[43],> 100 µM
same,TGI,[44],> 100 µM
same,TGI,[45],> 100 µM
same,TGI,[46],> 100 µM
same,TGI,[47],> 100 µM
same,TGI,[48],> 100 µM
same,TGI,[49],> 100 µM
same,TGI,[50],> 100 µM
same,TGI,[51],> 100 µM
same,TGI,[52],> 100 µM
same,TGI,[53],> 100 µM
same,TGI,[54],> 100 µM
same,TGI,[55],> 100 µM
Cc1ccc(S(=O)(=O)NC2C(=O)c3ccccc3C(=O)C2n2ccnc2)cc1 (configuration not stated),TGI,[1],29 µM
same,TGI,[2],> 100 µM
same,TGI,[56],> 100 µM
same,TGI,[3],> 100 µM
same,TGI,[4],> 100 µM
same,TGI,[5],> 100 µM
same,TGI,[6],> 100 µM
same,TGI,[7],52.9 µM
same,TGI,[8],> 100 µM
same,TGI,[9],> 100 µM
same,TGI,[10],> 100 µM
same,TGI,[11],> 100 µM
same,TGI,[12],> 100 µM
same,TGI,[13],> 100 µM
same,TGI,[14],> 100 µM
same,TGI,[15],> 100 µM
same,TGI,[16],> 100 µM
same,TGI,[17],> 100 µM
same,TGI,[18],> 100 µM
same,TGI,[19],38.8 µM
same,TGI,[20],> 100 µM
same,TGI,[22],> 100 µM
same,TGI,[23],> 100 µM
same,TGI,[24],> 100 µM
same,TGI,[25],> 100 µM
same,TGI,[57],> 100 µM
same,TGI,[26],> 100 µM
same,TGI,[27],80.8 µM
same,TGI,[28],> 100 µM
same,TGI,[29],> 100 µM
same,TGI,[30],> 100 µM
same,TGI,[31],> 100 µM
same,TGI,[32],30.7 µM
same,TGI,[33],> 100 µM
same,TGI,[34],32.8 µM
same,TGI,[35],5.77 µM
same,TGI,[36],> 100 µM
same,TGI,[37],> 100 µM
same,TGI,[38],> 100 µM
same,TGI,[39],> 100 µM
same,TGI,[40],46.4 µM
same,TGI,[41],> 100 µM
same,TGI,[42],28.3 µM
same,TGI,[43],> 100 µM
same,TGI,[44],33 µM
same,TGI,[45],> 100 µM
same,TGI,[46],> 100 µM
same,TGI,[47],> 100 µM
same,TGI,[48],53.1 µM
same,TGI,[49],> 100 µM
same,TGI,[50],> 100 µM
same,TGI,[51],> 100 µM
same,TGI,[52],> 100 µM
same,TGI,[53],> 100 µM
same,TGI,[54],25 µM
same,TGI,[55],29.5 µM
CCCCCCCCCCCC1=NCCN1,TGI,[1],> 100 µM
same,TGI,[2],> 100 µM
same,TGI,[3],39 µM
same,TGI,[5],32.7 µM
same,TGI,[6],> 100 µM
same,TGI,[7],75.4 µM
same,TGI,[8],48 µM
same,TGI,[9],> 100 µM
same,TGI,[10],> 100 µM
same,TGI,[11],> 100 µM
same,TGI,[12],35.4 µM
same,TGI,[13],> 100 µM
same,TGI,[14],> 100 µM
same,TGI,[15],> 100 µM
same,TGI,[16],> 100 µM
same,TGI,[17],> 100 µM
same,TGI,[19],> 100 µM
same,TGI,[58],43.2 µM
same,TGI,[23],44.1 µM
same,TGI,[25],> 100 µM
same,TGI,[57],> 100 µM
same,TGI,[26],> 100 µM
same,TGI,[27],60.5 µM
same,TGI,[28],> 100 µM
same,TGI,[29],> 100 µM
same,TGI,[30],> 100 µM
same,TGI,[31],> 100 µM
same,TGI,[32],> 100 µM
same,TGI,[33],> 100 µM
same,TGI,[35],67.5 µM
same,TGI,[36],> 100 µM
same,TGI,[38],> 100 µM
same,TGI,[39],> 100 µM
same,TGI,[41],> 100 µM
same,TGI,[42],> 100 µM
same,TGI,[43],> 100 µM
same,TGI,[44],> 100 µM
same,TGI,[46],> 100 µM
same,TGI,[47],95.1 µM
same,TGI,[48],> 100 µM
same,TGI,[49],> 100 µM
same,TGI,[50],38.7 µM
same,TGI,[51],> 100 µM
same,TGI,[53],92.3 µM
same,TGI,[54],22.9 µM
same,TGI,[55],68.9 µM
